This note sets out measurements from US20260027243A1, “AMPHIPHILIC COMPOUNDS FOR ATTENUATING NEUROTOXICITY OF AMYLOID-beta OLIGOMERS AND DIAGNOSTIC METHODS” (THE BOARD OF TRUSTEES OF THE UNIVERSITY OF ILLINOIS, priority 2022, published 2026).

The structures appear in SMILES notation.

Data set [1] addresses T1, Aβ42 oligomers (Homo sapiens, UniProt P05067).
T1 construct: commercial Aβ42 monomer powder (from GL biochem); purchased GL biochem
The experiment in a line: Fluorescence saturation binding assay with Aβ42 oligomers. Conditions: for Kd: Table 1, amphiphilic compounds, read-out: Kd, Oligomers; for binding affinity to oligomers compared with fibrils (Kd comparison): amphiphilic ZY compounds. The method, then: Aβ42 oligomers: The 0.5 mg monomeric films were dissolved in 1.1 mL PBS buffer (with final DMSO concentration less than 1%) and incubated at 4° C. overnight. The resulting solution was then centrifuged at 3000 rpm for 15 mins to remove the insoluble aggregates. The clear supernatant was then used for the following experiments. Aβ42 oligomers concentration was checked by measuring the absorbance of the supernatant at 280 nm.
(§1) In Vitro Saturation Binding Studies with Aβ42 Fibrils and Aβ42 Oligomers. To a solution of increasing concentrations of compounds, a fixed concentration of the generated aggregated Aβ42 fibrils or Aβ42 oligomers solutions (5 to 15 NM) was added to yield a total volume of 100 μL. Nonspecific binding was determined […]. The mixture was incubated for 15 min at room temperature. All fluorescence data were obtained on a SpectraMax M2e plate reader (Molecular Devices). The fluorescent intensity was measured at the corresponding emission wavelength of each compound, and the Kd binding curves were generated by GraphPad Prism 8.0 with one site-specific binding model. Equation: Y=Bmax*X/(Kd+X).

Data set [2] has as its target T2, Aβ42 fibrils (Homo sapiens, UniProt P05067).
T2 construct: commercial Aβ42 monomer powder (from GL biochem); purchased GL biochem
The experiment in a line: Fluorescence saturation binding assay with Aβ42 fibrils. Conditions: Table 1, amphiphilic compounds; read-out: Kd, Fibrils. The method, then:
Preparation of the Aβ42 Fibrils and Aβ42 Oligomers. Aβ42 fibrils: 1 mg of commercial Aβ42 monomer powder (from GL biochem) was dissolved in 1 mL 1,1,1,3,3,3-hexafluoro-2-propanol (HFIP) at room temperature and incubated for 1 h. The resulting solution was divided equally into two Eppendorf tubes. The solution in each Eppendorf tube containing 0.5 mg Aβ42 monomer was then evaporated overnight and dried by vacuum centrifuge to generate monomeric films. […] Aβ42 fibrils solution was prepared by dissolving the 0.5 mg monomeric films in 1.1 mL PBS buffer (with final DMSO concentration less than 1%) and stirring at 37° C. for 3 days.
as §1

Data set [3] concerns mouse neuroblastoma N2a cells. Description: Alamar blue cytotoxicity in N2a cells. The conditions noted are these: for relative cytotoxicity: comparison among compounds. It counts as cell-based. The method, then: Cytotoxicity Studies. Alamar Blue assay was chosen for the cytotoxicity studies. Mouse neuroblastoma Neuro2A (N2A) cells were grown with DMEM/10% FBS in a petri dish at 37° C. in a humidified atmosphere with 5% CO2. Then N2A cells were seeded in a 96-well plate (1.0×10^4/well). After 24 h incubation, cell media was changed to DMEM/N-2, and N2A cells were incubated for another 1 h. Then the cells were treated with different concentrations of compounds for 40 h, Alamar Blue solution (10 μL) was added, and the cells were incubated for another 90 min at 37° C. The fluorescence intensity of each well was measured at 590 nm (excitation wavelength=560 nm).

T1 sequence (P05067 672-713 limits assumed): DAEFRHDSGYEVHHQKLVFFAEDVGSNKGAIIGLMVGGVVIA
T2 sequence (P05067 672-713 limits assumed): as above

For the compound `CN1CCN(C)CCN(Cc2cc(/C=C/c3ccc(-c4ccc(C=O)cc4)s3)cc(CN3CCN(C)CCN(C)CC3)c2O)CC1` [ZY-15-DT, (E)-4-(5-(3,5-bis((4,7-dimethyl-1,4,7-triazonan-1-yl)methyl)-4-hydroxystyryl)thiophen-2-yl)benzaldehyde], the Kd – broadly, the concentration at which binding is half-saturated – in data set [1] was 4550 ± 320 nM; in data set [2], 1270 ± 100 nM.

For `COc1cc(OC)cc(-c2ccc(/C=C/c3cc(CN4CCN(C)CCN(C)CC4)c(O)c(OC)c3)cc2)c1` [ZY-17-OMe, (E)-4-(2-(3′,5′-dimethoxy-[1,1′-biphenyl]-4-yl)vinyl)-2-((4,7-dimethyl-1,4,7-triazonan-1-yl)methyl)-6-methoxyphenol], the relative cytotoxicity entry in data set [3] was “the highest toxicity”. In addition, in data set [1], the equilibrium dissociation constant (Kd) was determined as 120 nM and the “binding affinity to oligomers compared with fibrils (Kd comparison)” value was “higher binding affinity to oligomers over fibrils”. Besides, in data set [2], the equilibrium dissociation constant (Kd) is 180 ± 20 nM.

For the compound `CN1CCN(C)CCN(Cc2cc(/C=C/c3ccc(-c4ccc(N(C)C)cc4)s3)ccc2O)CC1` [ZY-5-MT, (E)-2-((4,7-dimethyl-1,4,7-triazonan-1-yl)methyl)-4-(2-(5-(4-(dimethylamino)phenyl)thiophen-2-yl)vinyl)phenol], the Kd in data set [1] was 460 ± 60 nM; in data set [2], 1820 ± 130 nM. The “binding affinity to oligomers compared with fibrils (Kd comparison)” value in data set [1] is recorded as “higher binding affinity to oligomers over fibrils”. Besides, the “selectivity to Aβ oligomers over Aβ fibrils” value in data set [1] (ratio of Kd values) is reported as 3.9 times.

`COc1cc(-c2ccc(/C=C/c3ccc(N(C)C)cc3)s2)cc(CN2CCN(C)CCN(C)CC2)c1O` [ZY-12-OMe, (E)-2-((4,7-dimethyl-1,4,7-triazonan-1-yl)methyl)-4-(5-(4-(dimethylamino)styryl)thiophen-2-yl)-6-methoxyphenol]: the cell viability result was “more than 75%” in data set [3] (at 5 μM) and “less than 50%” in data set [3] (at 10 μM). Further, the relative cytotoxicity entry in data set [3] is on record as “higher citotoxicity than others”. In addition, the Kd in data set [1] turned out to be 320 ± 40 nM; in data set [2] it was 390 ± 40 nM. Moreover, the “binding affinity to oligomers compared with fibrils (Kd comparison)” value in data set [1] is listed as “higher binding affinity to oligomers over fibrils”.

`CN1CCN(C)CCN(Cc2cc(-c3ccc(/C=C/c4ccc(N(C)C)cc4)s3)cc(CN3CCN(C)CCN(C)CC3)c2O)CC1` [ZY-12-DT, (E)-2,6-bis((4,7-dimethyl-1,4,7-triazonan-1-yl)methyl)-4-(5-(4-(dimethylamino)styryl)thiophen-2-yl)phenol]: the relative cytotoxicity result in data set [3] is “higher citotoxicity than others”. For the same compound, in data set [1], the Kd came to 670 ± 150 nM and the “binding affinity to oligomers compared with fibrils (Kd comparison)” value is recorded as “higher binding affinity to oligomers over fibrils”. Further, the dissociation constant (Kd) in data set [2] was found to be 1380 ± 240 nM.

Turning to `COc1cc(OC)cc(-c2ccc(/C=C/c3cc(CN4CCN(C)CCN(C)CC4)c(O)c(CN4CCN(C)CCN(C)CC4)c3)cc2)c1` [ZY-17-DT, (E)-4-(2-(3′,5′-dimethoxy-[1,1′-biphenyl]-4-yl)vinyl)-2,6-bis((4,7-dimethyl-1,4,7-triazonan-1-yl)methyl)phenol], the relative cytotoxicity result in data set [3] is listed as “higher citotoxicity than others”. Moreover, in data set [1], the Kd worked out at 1030 ± 200 nM and the “binding affinity to oligomers compared with fibrils (Kd comparison)” value is listed as “higher binding affinity to oligomers over fibrils”. In data set [2], the dissociation constant Kd was determined as 2250 ± 460 nM.

In the case of `CN1CCN(C)CCN(Cc2cc(/C=C/c3ccc(-c4ccc(N(C)C)cc4)s3)cc(CN3CCN(C)CCN(C)CC3)c2O)CC1` [ZY-5-DT, (E)-2,6-bis((4,7-dimethyl-1,4,7-triazonan-1-yl)methyl)-4-(2-(5-(4-(dimethylamino)phenyl)thiophen-2-yl)vinyl)phenol], the equilibrium dissociation constant (Kd) in data set [1] was 2090 ± 360 nM; in data set [2] it was 1670 ± 190 nM.

As for `COc1cc(OC)cc(-c2ccc(/C=C/c3ccc(O)c(CN4CCN(C)CCN(C)CC4)c3)cc2)c1` [ZY-17-MT, (E)-4-(2-(3′,5′-dimethoxy-[1,1′-biphenyl]-4-yl)vinyl)-2-((4,7-dimethyl-1,4,7-triazonan-1-yl)methyl)phenol], the figures for the Kd in data set [1] and in data set [2] were 2080 ± 340 nM and 940 ± 70 nM, respectively.
